According to patent US20260000642A1 (Tay Therapeutics Limited, priority 2022, published 2026):

Tests used:
[1] = Sprague-Dawley rat pharmacokinetics (IV and PO); assay type: in vivo; conditions: rat, plasma; male Sprague-Dawley rats, PO 5 mg/kg (IV 1 mg/kg), cassette mode, Method 1; read-out: PO F (%)
How it was run: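 Male Sprague-Dawley rats (2 per arm) dosed in cassette (up to 5 compounds) at 1 mg/kg IV and 5 mg/kg PO, formulated in 5% DMSO/40% PEG-400/55% water. Plasma sampled over time, acetonitrile-precipitated with internal standard, and quantified by LC/MS/MS against matrix-matched standards.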

[2] = Beagle dog PK study 2 (IV, HPβCD based formulation); assay type: in vivo
Method: The purpose of this study was to examine the pharmacokinetics of Example 101 in beagle dogs. […] An oral PK study was also undertaken in Lewis rats—see Experimental Method C.
Body weight was recoded prior to dosing, and detailed clinical observations were made prior to dosing and throughout the study, as needed.
78.646 mL of HPβCD (20% solution w/v) was then added with vortex and sonication.
Blood samples (˜0.3 mL) were collected according to a schedule (shown below) by venipuncture of peripheral veins except for the dosing vein, and EDTA-K2 was used as anticoagulant. Within 30 minutes of collection, the samples were centrifuged at approximately 2000× g for 10 minutes at 4° C. to obtain blood plasma. The plasma samples were immediately divided into two aliquots (˜75 μL each), transferred to a cryogenic vial, and stored in a freezer at −75±15° C. prior to analysis.
Blood samples were collected at 0.083, 0.25, 0.5, 1, 2, 4, 8, and 24 h following the initial dosing (0 h).
The experiments were conducted on a Shimadzu DGU-20A5R and AB API 5500+LC/MS/MS instrument with an Agilent Poroshell EC-C18 4 μm (50×2.1 mm) column. A gradient of 95% water (0.1% formic acid)/95% acetonitrile (0.1% formic acid) was used as the mobile phase. The sample injection volume was 1 μL, and the flow rate was 0.6 mL/min. The gathered data were used for pharmacokinetic calculations using T½, C0, AUClast, AUCinf, MRTinf, CI, Vss, and Number of Points for Regression as parameters.

[3] = Plasma stability assay, human plasma; assay type: in vitro ADME; conditions: 37° C., Method 1 (5 μM)
[4] = system: CXCL10; assay: Human PBMC assay, CXCL10 by ELISA (IFN-γ stimulation); assay type: cell-based
Method: The impact of Examples 23, 80, and 101 on IL-17A, IL-22, and CXCL10 levels was analyzed in cryopreserved human peripheral blood mononuclear cells (PBMC) by ELISA.
For IL-17A and IL-22 assays, Examples 23, 80, and 101 were serially diluted from 10 mM in DMSO and further diluted in assay media to 100× the required final concentration, of which, 2 μL was added per well to a round-bottom 96-well tissue culture plate where the final DMSO concentration per well was 0.1%. CD2, CD3, and CD28 antibody-coated beads from the T-cell activation/expansion kit (Miltenyi Biotec) were added to the PBMC at a bead-to-cell ratio of 1:2. The mixture of PBMCs and beads were seeded into the wells of the round-bottom 96-well plate at a concentration of 2×10^5 cells/well in a total volume of 200 μL. The cells were cultured for 72 hours at 37° C. and 5% CO2 and then supernatants were collected and IL-17A and IL-22 levels were measured by ELISA. For the CXCL10 assay, Examples 23, 80, and 101 were serially diluted from 10 mM in DMSO and further diluted in assay media to 100× the required final concentration, of which 2 μL was added per well to a 96-well tissue culture plate. The final compound concentration ranged from 30,000 nM to 0.005 nM and the final DMSO concentration per well was 0.3%. PBMCs were seeded at approximately […] in the wells of the 96-well tissue culture plate in a total volume of 190 μL. The plate was incubated for 1 hour at 37° C. and 5% CO2. The cells were then stimulated with IFN-γ (15 ng/mL final concentration) in a volume of 10 μL. The cells were then cultured for 24 hours at 37° C. and 5% CO2. The supernatant was collected and CXCL10 levels were measured by ELISA.

CNC(=O)c1[nH]c(C(=O)NC2CCC2)cc1O[C@@H](C)c1ccccc1 [Example 101, N^5-cyclobutyl-N^2-methyl-3-(1-phenylethoxy)-1H-pyrrole-2,5-dicarboxamide]
bioavailability [1]: 66%
AUClast/D, Mean ([2]; PK study 2, IV 1 mg/kg): 977 (ng · h/mL)/(mg/kg)
AUC—% Extrap_obs, Mean ([2]; PK study 2, IV 1 mg/kg): 0.689%
C0, Mean ([2]; PK study 2, IV 1 mg/kg): 1875 ng/mL
Cl_obs, Mean ([2]; PK study 2, IV 1 mg/kg): 18.3 mL/min/kg
Vssz_obs, Mean ([2]; PK study 2, IV 1 mg/kg): 0.864 L/kg
Average plasma concentration, Mean ([2]; PK study 2, IV 1 mg/kg, 24 h): BLOQ
Vssz_obs ([2]; PK study 2, IV 1 mg/kg, Test Animal 1): 0.838 L/kg
Vssz_obs ([2]; PK study 2, IV 1 mg/kg, Test Animal 2): 0.886 L/kg
Vssz_obs ([2]; PK study 2, IV 1 mg/kg, Test Animal 3): 0.868 L/kg
clinical observations after intravenous administration ([2]; beagle dogs, PK study 2, IV, 0.5 mg/mL in HPβCD (20% solution w/v)/DMSO (99/1)): soft feces
Plasma Stability (% remaining at 120 minutes) Human [3]: 93%
selectivity to induction of CXCL10 relative to IL-17A and IL-22 [4]: showed selectivity
IC50 for CXCL-10 relative to GSK620 ([4]; IFN-γ, 24 hours, ELISA): substantially lower 1050
